Data reported in ChEMBL document CHEMBL1201862, “PubChem BioAssay data set” (2004).
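Method: 48-hour compound exposure of cells in 96-well plates, five concentrations, linear interpolation of endpoints. GI50 is the concentration that inhibits growth by half.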 Activity calls are given as the source filed them. No stated cut-off is given here; in the data, active = GI50 up to about 1.1 µM and inactive = higher.

Columns and labels:
Test in all cases: inhibition of tumour cell growth, NCI panel, 48 h
Malme-3M = tested on: Malme-3M
OVCAR-4 = tested on: OVCAR-4
HCT-15 = tested on: HCT-15
HCT-116 = tested on: HCT-116
LOX IMVI = tested on: LOX IMVI
SF-539 = tested on: SF-539
SNB-19 = tested on: SNB-19
RPMI-8226 = tested on: RPMI-8226
M19-MEL = tested on: M19-MEL
M14 = tested on: M14
SK-MEL-28 = tested on: SK-MEL-28
K562 = tested on: K562
SF-295 = tested on: SF-295
CCRF-CEM = tested on: CCRF-CEM
EKVX = tested on: EKVX
RXF 393 = tested on: RXF 393
MDA-N = tested on: MDA-N
BT-549 = tested on: BT-549
DU-145 = tested on: DU-145
OVCAR-3 = tested on: OVCAR-3

| SMILES | GI50 (Malme-3M) | GI50 (OVCAR-4) | GI50 (HCT-15) | GI50 (HCT-116) | GI50 (LOX IMVI) | GI50 (SF-539) | GI50 (SNB-19) | GI50 (RPMI-8226) | GI50 (M19-MEL) | GI50 (M14) | GI50 (SK-MEL-28) | GI50 (K562) | GI50 (SF-295) | GI50 (CCRF-CEM) | GI50 (EKVX) | GI50 (RXF 393) | GI50 (MDA-N) | GI50 (BT-549) | GI50 (DU-145) | GI50 (OVCAR-3) |
| --- | --- | --- | --- | --- | --- | --- | --- | --- | --- | --- | --- | --- | --- | --- | --- | --- | --- | --- | --- | --- |
| CSC1CC2C(CC1(C)O)C2(C)C (configuration not stated) | > 100 µM (inactive) | > 100 µM (inactive) | > 100 µM | > 100 µM (inactive) | 95.5 µM (inactive) | > 100 µM (inactive) | > 100 µM (inactive) | > 100 µM (inactive) | > 100 µM (inactive) | > 100 µM (inactive) | > 100 µM (inactive) | – | – | – | – | – | – | – | – | – |
| CC1=N/C(=C\c2c(O)ccc3ccccc23)C(=O)O1 | > 100 µM (inactive) | > 100 µM (inactive) | > 100 µM | > 100 µM (inactive) | – | > 100 µM (inactive) | > 100 µM (inactive) | > 100 µM (inactive) | > 100 µM (inactive) | > 100 µM (inactive) | > 100 µM (inactive) | > 100 µM (inactive) | > 100 µM (inactive) | > 100 µM (inactive) | > 100 µM (inactive) | > 100 µM (inactive) | – | – | – | – |
| OC(Cc1cc(CC(O)(C(F)(F)F)C(F)(F)F)nc(CC(O)(C(F)(F)F)C(F)(F)F)c1)(C(F)(F)F)C(F)(F)F | 2.59 µM (inactive) | 0.851 µM (active) | 0.767 µM | 0.869 µM (active) | 0.39 µM (active) | 1.69 µM (inactive) | 0.726 µM (active) | > 10 µM (inactive) | – | 2.43 µM (inactive) | 1.98 µM (inactive) | > 10 µM (inactive) | 0.509 µM (active) | > 10 µM (inactive) | 2.07 µM (inactive) | 2.18 µM (inactive) | 1.45 µM (inactive) | 2.46 µM (inactive) | 1.91 µM (inactive) | 0.49 µM (active) |
| [N-]=[N+]=NC1C2CC3CC(C2)CC1C3 (configuration not stated) | > 100 µM (inactive) | > 100 µM (inactive) | – | > 100 µM (inactive) | > 100 µM (inactive) | > 100 µM (inactive) | > 100 µM (inactive) | > 100 µM (inactive) | > 100 µM (inactive) | > 100 µM (inactive) | > 100 µM (inactive) | > 100 µM (inactive) | > 100 µM (inactive) | > 100 µM (inactive) | > 100 µM (inactive) | – | – | – | – | > 100 µM (inactive) |
| COC(=O)C1=C(C)NC2=C(C(=O)c3ccccc32)C1c1cn(-c2ccccc2)nc1-c1ccccc1 (configuration not stated) | > 84.7 µM (inactive) | > 100 µM (inactive) | 30.1 µM | 12.1 µM (inactive) | 37.4 µM (inactive) | 21.2 µM (inactive) | > 48.1 µM (inactive) | 2.67 µM (inactive) | – | > 100 µM (inactive) | 96.8 µM (inactive) | 16.3 µM (inactive) | 34.5 µM (inactive) | 23.4 µM (inactive) | > 42.9 µM (inactive) | > 44.8 µM (inactive) | > 61.7 µM (inactive) | 63.7 µM (inactive) | > 100 µM (inactive) | > 48.1 µM (inactive) |
| C=C(C(=O)O)[C@@H]1C[C@@H]2O[C@H]1CC(C)=CCC/C(C)=C/CC[C@@]2(C)O | > 100 µM (inactive) | > 100 µM (inactive) | > 100 µM | > 100 µM (inactive) | > 100 µM (inactive) | > 100 µM (inactive) | > 100 µM (inactive) | > 100 µM (inactive) | – | > 100 µM (inactive) | > 100 µM (inactive) | > 100 µM (inactive) | > 100 µM (inactive) | > 100 µM (inactive) | > 100 µM (inactive) | > 100 µM (inactive) | > 100 µM (inactive) | > 100 µM (inactive) | > 100 µM (inactive) | > 100 µM (inactive) |
| OC(c1ccc(F)cc1)(c1ccc(F)cc1)C1CC1 | 23.9 µM (inactive) | 26.2 µM (inactive) | 23 µM | 26.8 µM (inactive) | 20 µM (inactive) | 33.3 µM (inactive) | 42.8 µM (inactive) | 26.9 µM (inactive) | – | 21.5 µM (inactive) | 30 µM (inactive) | 31.4 µM (inactive) | 27.9 µM (inactive) | 24.8 µM (inactive) | 29.2 µM (inactive) | 26.9 µM (inactive) | 19.4 µM (inactive) | 19.2 µM (inactive) | 49.9 µM (inactive) | 32.5 µM (inactive) |
| O/N=C/c1cc2c(cc1Br)OCO2 | > 100 µM (inactive) | > 100 µM (inactive) | > 100 µM | > 100 µM (inactive) | > 100 µM (inactive) | > 100 µM (inactive) | > 100 µM (inactive) | > 100 µM (inactive) | > 100 µM (inactive) | > 100 µM (inactive) | – | > 100 µM (inactive) | > 100 µM (inactive) | > 100 µM (inactive) | > 100 µM (inactive) | – | – | – | – | > 100 µM (inactive) |
| COC(=O)c1cccn1C(=O)n1cccc1 | > 100 µM (inactive) | > 100 µM (inactive) | – | > 100 µM (inactive) | > 100 µM (inactive) | > 100 µM (inactive) | > 100 µM (inactive) | – | > 100 µM (inactive) | > 100 µM (inactive) | > 100 µM (inactive) | > 100 µM (inactive) | > 100 µM (inactive) | > 100 µM (inactive) | > 100 µM (inactive) | > 100 µM (inactive) | – | – | – | > 100 µM (inactive) |
